Test results published in patent US10000380B2, “Method for the manufacture of polymeric sulfur” (EASTMAN CHEMICAL COMPANY, priority 2016, dated 2018).

Assay: Solubility of cyclooctasulfur, cyclododecasulfur and crystalline polymeric sulfur in carbon disulfide, chlorobenzene and para-xylene (supernatant sulfur content by Uniquant)
Assay type: physicochemical
Protocol: Samples were also analyzed using X-ray fluorescence and the UniQuant software package. UniQuant (UQ) is an x-ray fluorescence (XRF) analysis tool that affords standardless XRF analysis of samples. Samples can then be semi-quantitatively analyzed for up to 72 elements beginning with row three in the periodic table (i.e. Na to higher Z). The data are mathematically corrected for matrix differences between calibration standards and samples as well as absorption and enhancement effects; i.e. inter-element effects. Some factors that can affect the quality of results include granularity in the sample (leading to shadow effects), mineralogical effects (due to sample inhomogeneity), insufficient sample size, and lack of knowledge of the sample matrix. In cases where a sample was amenable to both, the XRF UQ analysis and the ICP-OES (i.e. quantitative) analysis generally agree within +/−10%. Samples were analyzed for Zn, Br, Cl, and S content by UQ.
Fifty grams of p-xylene was added to each of three identical 100-milliliter jacketed glass vessels fitted with a circulating heating bath, cooling water condenser, magnetic stir bar and stir plate, and nitrogen purge. All vessels were heated to the desired temperature, and cyclooctasulfur, cyclododecasulfur (prepared as in Example 2), and unoiled commercial crystalline polymeric sulfur (Crystex™) was added in sufficient quantities to each of the glass vessels to allow undissolved solids to remain after dissolution and equilibration of the mixture. The equilibration period typically lasted 2 to 8 hours, during which the contents of the vessel were maintained at the desired temperature and stirred continuously. Upon equilibration, supernatant liquid was withdrawn from the vessels via a heated fritted glass pipette (heated to the same temperature as the solution). The supernatants were analyzed by Uniquant to determine sulfur content, indicating the solubility of the sulfur species at the vessel temperature. Similar experiments were conducted for carbon disulfide and chlorobenzene for each of the three solutes.

Solubility in weight % of solute in solvent (solvent CS2, 22 °C) | Solubility in weight % of solute in solvent (solvent CS2, 45 °C) | Solubility in weight % of solute in solvent (solvent chlorobenzene, 45 °C) | Solubility in weight % of solute in solvent (solvent chlorobenzene, 115 °C) | Solubility in weight % of solute in solvent (solvent p-xylene, 45 °C) | Solubility in weight % of solute in solvent (solvent p-xylene, 115 °C) | Solubility relative to cyclododecasulfur (in p-xylene, chlorobenzene and CS2, depending on temperature) | Solubility in weight % of solute in solvent (solvent chlorobenzene, 22 °C) | Solubility in weight % of solute in solvent (solvent p-xylene, 22 °C) | SMILES | Solubility relative to polymeric sulfur (in p-xylene, chlorobenzene and CS2)
0.2 wt % | 0.5 wt % | 0.015 wt % | 0.44 wt % | <0.05 wt % | 0.4 wt % |  |  |  | S1SSSSSSSSSSS1 [Cyclododecasulfur, cyclododecasulfur] | at least an order of magnitude more soluble
32 wt % | 48 wt % | 6.2 wt % | 21.7 wt % | 5.6 wt % | 18.7 wt % | 30 to 200 times | 2.4 wt % | 2.3 wt % | S1SSSSSSS1 [Cyclooctasulfur, cyclooctasulfur] | 
